Assay results from patent US10030020B2, “Spirocycle compounds and methods of making and using same” (Abide Therapeutics, Inc., priority 2016, dated 2018).

How the values were obtained:
[1] = target: T1, MAGL (Mus musculus (Mouse), UniProt O35678); assay: In vitro competitive activity-based protein profiling (mouse brain membrane fraction or cell lysates), MAGL band; type: biochemical; conditions: 1 μM, mouse; read-out: MAGL % Inh 1 μM (mouse)
Method: In Vitro Competitive Activity-Based Protein Profiling.
Proteomes (mouse brain membrane fraction or cell lysates) (50 μL, 1.0 mg/mL total protein concentration) were preincubated with varying concentrations of inhibitors at 37° C. After 30 min, FP—Rh (1.0 μL, 50 μM in DMSO) was added and the mixture was incubated for another 30 min at 37° C. Reactions were quenched with SDS loading buffer (50 μL-4×) and run on SDS-PAGE.

[2] = target: T2, ABHD6 (Mus musculus (Mouse), UniProt Q8R2Y0); assay: In vitro competitive activity-based protein profiling (mouse brain membrane fraction or cell lysates), ABHD6 band; type: biochemical; conditions: 1 μM, mouse; read-out: ABHD6 % Inh 1 μM (mouse)
T2 sequence (Q8R2Y0 whole entry): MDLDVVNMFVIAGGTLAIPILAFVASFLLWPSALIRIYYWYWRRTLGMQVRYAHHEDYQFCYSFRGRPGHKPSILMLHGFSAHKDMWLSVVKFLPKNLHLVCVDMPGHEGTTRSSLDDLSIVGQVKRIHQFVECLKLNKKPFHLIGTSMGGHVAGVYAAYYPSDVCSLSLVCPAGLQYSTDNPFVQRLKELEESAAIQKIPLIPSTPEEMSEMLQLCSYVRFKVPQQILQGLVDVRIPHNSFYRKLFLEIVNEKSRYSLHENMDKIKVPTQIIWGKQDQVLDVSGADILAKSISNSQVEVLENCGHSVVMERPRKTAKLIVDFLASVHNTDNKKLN
Procedure, shortened: (§1)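 Competitive ABPP: proteome 1.0 mg/mL protein + inhibitor, 30 min, 37° C; FP-Rh probe (stock 50 μM in DMSO) added, 30 min, 37° C; SDS quench, SDS-PAGE, fluorescent band intensity read.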

[3] = target: T3, FAAH (Mus musculus (Mouse), UniProt O08914); assay: In vitro competitive activity-based protein profiling (mouse brain membrane fraction or cell lysates), FAAH band; type: biochemical; conditions: 1 μM, mouse; read-out: FAAH % Inh 1 μM (mouse)
T3 sequence (O08914 whole entry): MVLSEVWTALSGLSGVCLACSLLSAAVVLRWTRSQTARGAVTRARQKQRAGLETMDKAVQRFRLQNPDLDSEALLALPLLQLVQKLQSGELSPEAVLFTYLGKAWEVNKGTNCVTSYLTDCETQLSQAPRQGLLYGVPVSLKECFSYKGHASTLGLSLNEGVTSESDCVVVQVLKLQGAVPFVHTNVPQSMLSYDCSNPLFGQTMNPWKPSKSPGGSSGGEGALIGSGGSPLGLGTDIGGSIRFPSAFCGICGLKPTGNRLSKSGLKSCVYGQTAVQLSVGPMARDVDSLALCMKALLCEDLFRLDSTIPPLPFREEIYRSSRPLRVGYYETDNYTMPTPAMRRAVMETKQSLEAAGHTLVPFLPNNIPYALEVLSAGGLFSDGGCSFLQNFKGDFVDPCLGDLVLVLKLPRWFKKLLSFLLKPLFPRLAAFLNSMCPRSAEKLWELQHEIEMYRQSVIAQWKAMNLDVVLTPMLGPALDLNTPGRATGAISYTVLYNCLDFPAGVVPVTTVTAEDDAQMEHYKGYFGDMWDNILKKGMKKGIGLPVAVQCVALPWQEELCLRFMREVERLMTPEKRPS
Procedure, shortened: as §1

[4] = target: MAGL (Homo sapiens (Human), UniProt Q99685); assay: In vitro competitive activity-based protein profiling (human prefrontal cortex or cell membrane fractions; hMAGL expressed in HEK293T cells); type: biochemical; conditions: human
MAGL (Homo sapiens (Human), UniProt Q99685), sequence (Q99685 whole entry): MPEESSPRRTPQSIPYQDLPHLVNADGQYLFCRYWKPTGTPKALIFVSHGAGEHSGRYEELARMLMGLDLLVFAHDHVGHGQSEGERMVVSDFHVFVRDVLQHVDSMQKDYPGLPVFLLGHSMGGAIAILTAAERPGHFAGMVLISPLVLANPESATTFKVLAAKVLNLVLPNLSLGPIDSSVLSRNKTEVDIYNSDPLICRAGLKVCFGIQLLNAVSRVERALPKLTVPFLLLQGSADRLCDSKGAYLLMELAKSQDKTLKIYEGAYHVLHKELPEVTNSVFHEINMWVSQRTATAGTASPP
Procedure, shortened: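 Human prefrontal cortex or cell membrane proteomes (1.0-2.0 mg/mL), or lysates of HEK293T cells expressing hMAGL diluted into mock proteome, preincubated with inhibitor 30 min at 37° C. FP-Rh or JW912 probe then added for 30 min at room temperature. Residual labeling resolved by SDS-PAGE.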

[5] = target: T1, MAGL; assay: Mouse brain proteomes from inhibitor treated mice (oral gavage, sacrificed 4 h after administration, ABPP analysis); type: in vivo, mouse (C57Bl/6J); conditions: 5 mg/kg oral gavage
Procedure, shortened: (§2)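 Compounds were given by oral gavage to wild-type C57Bl/6J mice in a vehicle such as PEG400/Ethanol/PBS (7/2/1). Animals were sacrificed 4 h after dosing, and brain proteomes were prepared and analyzed by established ABPP methods. Values are % inhibition at 5 mg/kg.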

[6] = target: T3, FAAH; assay: Mouse brain proteomes from inhibitor treated mice (oral gavage, sacrificed 4 h after administration, ABPP analysis), FAAH; type: in vivo, mouse (C57Bl/6J); conditions: 5 mg/kg oral gavage
Procedure, shortened: as §2

[7] = target: T2, ABHD6; assay: Mouse brain proteomes from inhibitor treated mice (oral gavage, sacrificed 4 h after administration, ABPP analysis), ABHD6; type: in vivo, mouse (C57Bl/6J); conditions: 5 mg/kg oral gavage
Procedure, shortened: as §2

T1 sequence (O35678 whole entry): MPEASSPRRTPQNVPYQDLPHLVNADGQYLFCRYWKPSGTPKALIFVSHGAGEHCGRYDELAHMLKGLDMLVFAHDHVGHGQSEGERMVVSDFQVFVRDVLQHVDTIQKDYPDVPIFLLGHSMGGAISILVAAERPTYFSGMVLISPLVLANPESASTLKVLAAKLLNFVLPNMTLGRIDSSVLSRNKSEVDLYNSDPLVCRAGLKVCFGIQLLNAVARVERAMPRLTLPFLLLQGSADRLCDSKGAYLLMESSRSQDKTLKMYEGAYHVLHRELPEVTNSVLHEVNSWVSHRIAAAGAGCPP

inhibition at 1 µM [1] [%]	inhibition at 1 µM [2] [%]	inhibition at 1 µM [3] [%]	IC50 [4] [nM]	MAGL % Inh 5 mg/kg (mouse) [5]	FAAH % Inh 5 mg/kg (mouse) [6]	ABHD6 % Inh 5 mg/kg (mouse) [7]	SMILES
> 75	< 25	< 25	< 100	### (### is ≥75%)	# (# is <25%)	# (# is <25%)	O=C(O)C1CCN(Cc2cc(CN3CCCC34CCN(C(=O)OC(C(F)(F)F)C(F)(F)F)CC4)cc(C(F)(F)F)c2)CC1 [Example 244]
> 75	< 25	< 25	< 100	### (### is ≥75%)	# (# is <25%)	# (# is <25%)	O=C(O)C1CCN(c2cc(OC(F)(F)F)ccc2CN2CCCC23CCN(C(=O)OC(C(F)(F)F)C(F)(F)F)CC3)CC1 [Example 248]
> 75	< 25	< 25	< 100	# (# is <25%)	# (# is <25%)	# (# is <25%)	CC1(C(=O)O)CN(c2cc(C(F)(F)F)ccc2CN2CCC3(CCN(C(=O)OC(C(F)(F)F)C(F)(F)F)CC3)C2)CCO1 (centres unmarked) [Example 256]
> 75	≥ 75	< 25	< 100	# (# is <25%)	# (# is <25%)	# (# is <25%)	CS(=O)(=O)C1CCN(c2cc(C(F)(F)F)ccc2CN2CCCC23CCN(C(=O)OC(C(F)(F)F)C(F)(F)F)CC3)CC1 [Example 267]
> 75	< 25	< 25	< 100	### (### is ≥75%)	# (# is <25%)	# (# is <25%)	O=C(O)C1CCN(Cc2cc(Cl)cc(CN3CCCC34CCN(C(=O)OC(C(F)(F)F)C(F)(F)F)CC4)c2)C1 (centres unmarked) [Example 272]
> 75	25 to 75	< 25	< 100	### (### is ≥75%)	# (# is <25%)	# (# is <25%)	O=C(O)[C@H]1CCCCN1c1cc(CN2CCCC23CCN(C(=O)OC(C(F)(F)F)C(F)(F)F)CC3)cc(C(F)(F)F)c1 [Example 274]
> 75	25 to 75	< 25	< 100	### (### is ≥75%)	# (# is <25%)	# (# is <25%)	NC(=O)C1CCN(Cc2cc(C(F)(F)F)ccc2CN2CCCC23CCN(C(=O)OC(C(F)(F)F)C(F)(F)F)CC3)CC1 [Example 275]
> 75	25 to 75	< 25	< 100	# (# is <25%)	# (# is <25%)	# (# is <25%)	O=C(O)C1CCN(C(=O)c2cc(C(F)(F)F)ccc2CN2CCCC23CCN(C(=O)OC(C(F)(F)F)C(F)(F)F)CC3)CC1 [Example 281]

SMILES	inhibition at 1 µM [1] [%]	inhibition at 1 µM [2] [%]	inhibition at 1 µM [3] [%]	IC50 [4] [nM]	MAGL % Inh 5 mg/kg (mouse) [5]	FAAH % Inh 5 mg/kg (mouse) [6]	ABHD6 % Inh 5 mg/kg (mouse) [7]
N#Cc1ccc(CN2CCCC23CCN(C(=O)OC(C(F)(F)F)C(F)(F)F)CC3)c(N2CCC(C(=O)O)CC2)c1 [Example 249]	> 75	< 25	< 25	< 100	## (## is equal to or greater than 25% but less than 75%)	# (# is <25%)	# (# is <25%)
O=C(O)C1CCN(Cc2cc(CN3CCCC34CCN(C(=O)OC(C(F)(F)F)C(F)(F)F)CC4)cc(C(F)(F)F)c2)C1 (centres unmarked) [Example 253]	> 75	< 25	< 25	< 100	## (## is equal to or greater than 25% but less than 75%)	# (# is <25%)	# (# is <25%)
O=C(O)C1CCN(Cc2cc(C(F)(F)F)ccc2CN2CCCC23CCN(C(=O)OC(C(F)(F)F)C(F)(F)F)CC3)C1 (centres unmarked) [Example 262]	> 75	< 25	< 25	< 100	## (## is equal to or greater than 25% but less than 75%)	# (# is <25%)	# (# is <25%)
CS(=O)(=O)C1CN(c2cc(C(F)(F)F)ccc2CN2CCCC23CCN(C(=O)OC(C(F)(F)F)C(F)(F)F)CC3)C1 [Example 268]	> 75	25 to 75	< 25	< 100	## (## is equal to or greater than 25% but less than 75%)	# (# is <25%)	## (## is equal to or greater than 25% but less than 75%)
O=C(O)C1CCN(Cc2cc(CN3CCCC34CCN(C(=O)OC(C(F)(F)F)C(F)(F)F)CC4)cc(OC(F)(F)F)c2)CC1 [Example 269]	> 75	< 25	< 25	< 100	## (## is equal to or greater than 25% but less than 75%)	# (# is <25%)	# (# is <25%)
O=C(O)C1CCN(Cc2cc(CN3CCCC34CCN(C(=O)OC(C(F)(F)F)C(F)(F)F)CC4)cc(OC(F)(F)F)c2)C1 (centres unmarked) [Example 270]	> 75	< 25	< 25	< 100	## (## is equal to or greater than 25% but less than 75%)	# (# is <25%)	# (# is <25%)
